This note sets out measurements from patent publication US12325696B2, “Indazole derivative, preparation method therefor, and pharmaceutical application thereof” (JIANGSU HENGRUI MEDICINE CO., LTD., priority 2019, dated 2025).

Structures are written as SMILES. Where two headings read alike, the source gives them in different places.

The nature of series [1]: Pharmacokinetics in BALB/C nude mice after intragastric administration. The series is classed as in vivo. The following applies: female, mouse, plasma, po; for Vd/F: read-out: Apparent volume of distribution Vz/F; for AUC: read-out: Area under curve AUC; for CL/F: read-out: Clearance rate CL/F; for half-life: read-out: Half-life t1/2 (converted); for Cmax: read-out: Plasma concentration Cmax; for MRT: read-out: Residence time MRT. The procedure: BALB/C nude mice were used as test animals. The drug concentration in plasma at different time points was determined by LC/MS/MS method after intragastric administration of the compounds of the present disclosure to BALB/C nude mice. The pharmacokinetic behavior and characteristics of the compounds of the present disclosure was studied and evaluated in BALB/C nude mice.
Sixty-three BALB/C nude mice (female, equally divided into seven groups, nine mice per group) were purchased from Jiesijie Laboratory Animal Co., LTD. (Certificate No.: SCXK (Shanghai)2013-0006).
For the compound of Example 14, an appropriate amount of the compound was weighed, followed by the addition of 5% of DMSO, 5% of tween 80 and 90% of normal saline by volume to obtain a colorless, clear and transparent solution (0.1 mg/mL).
For the compounds of Examples 1, 15 and 39 to 42, an appropriate amount of the compound was weighed, followed by the addition of 9% of PEG400, 0.5% of tween 80 and 90.5% of 0.5% CMC-Na by volume to obtain a colorless, clear and transparent solution (1.5 mg/mL).
After an overnight fast, the test compounds were intragastrically administered at an administration volume of 0.2 ml/10 g respectively. The administration dose of the compound of Example 14 was 2 mg/kg, and the administration dose of the compounds of Examples 1, 15 and 39 to 42 was 30 mg/kg.
For the compounds of Examples 1 and 39, 0.1 ml of blood was taken at 0.25, 0.5, 1.0, 2.0, 4.0, 6.0, 8.0, 11.0 and 24.0 hours after the administration (from three animals per time point). The samples were stored in blood collection tubes treated with heparin (Sinopharm Chemical Reagent Co., Ltd.), and centrifuged for 10 minutes at 3500 rpm to separate the blood plasma. The blood plasma was stored at −20° C. The content of the test compound in the plasma of nude mouse after intragastrical administration of the test compound was determined. 25 μL of nude mouse plasma at each time point after the administration was taken, followed by the addition of 30 μL of the internal standard camptothecin solution (National Institutes for Food and Drug Control) (100 ng/mL) and 225 μL of acetonitrile. The resulting solution was vortex-mixed for 5 minutes, and centrifuged for 10 minutes (3700 to 4000 rpm). 0.1 to 0.5 μL of the supernatant was taken from the plasma samples for LC/MS/MS analysis.
For the compounds of Examples 14 and 15, 0.1 ml of blood was taken at 0.5, 1.0, 2.0, 4.0, 6.0, 8.0, 11.0 and 24.0 hours after the administration (from three animals per time point). The samples were stored in heparinized tubes, and centrifuged for 10 minutes at 3500 rpm to separate the blood plasma. The blood plasma was stored at −20° C. The content of the test compound in the plasma of nude mouse after intragastrical administration of the test compound was determined. 25 μL of nude mouse plasma at each time point after the administration was taken, followed by the addition of 30 μL of the internal standard camptothecin solution (100 ng/mL) and 200 μL of acetonitrile. The resulting solution was vortex-mixed for 5 minutes, and centrifuged for 10 minutes (3700 rpm). 0.25 to 1 μL of the supernatant was taken from the plasma samples for LC/MS/MS analysis.
For the compounds of Examples 40 to 42, 0.1 ml of blood was taken at 0.25, 0.5, 1.0, 2.0, 4.0, 6.0, 8.0, 11.0 and 24.0 hours after the administration (from three animals per time point). The samples were stored in tubes anticoagulated with EDTA-K2 (Shanghai Titan Scientific Co., Ltd.), and centrifuged for 1 minute at 10000 rpm and 4° C. The blood plasma was separated within one hour, and stored at −20° C. The process from blood collection to centrifugation was operated under an ice bath condition. The content of the test compound in the plasma of nude mouse after intragastrical administration of the test compound was determined. […]

Series [2] concerns the target estrogen receptor ERα wild-type (Homo sapiens (Human), UniProt P03372). Briefly: Covalent modification of ERα wild-type LBD by high-resolution mass spectrometry. The series is classed as binding. As to conditions: after 24 hours; 2 μM protein, 10 μM compound, 4° C. The procedure: The ligand binding domain (LBD, aa296-554) of estrogen receptor ERα wild-type and ERα Y537S mutant-type was expressed in E. coli and purified. 2 μM ERα wild-type or ERα Y537S mutant-type protein and 10 μM compound were added to a buffer solution containing 50 mM Tris-HCl, pH7.5, 150 mM NaCl, 1 mM TCEP and 5% glycerol and mixed well. The solution was incubated at 4° C. for 24 hours, followed by high-resolution mass spectrometry (Agilent Technologies, Agilent Q-tof 6530) assay. Alternatively, 1 μM ERα wild-type or ERα Y537S mutant-type protein and 3 μM compound were added to a buffer solution containing 50 mM Tris-HCl, pH7.5, 150 mM NaCl, 1 mM TCEP and 5% glycerol and mixed well. The solution was incubated at 37° C. for 15 minutes, followed by high-resolution mass spectrometry assay. In the mass spectrometry assay results, the peak whose molecular weight is the sum of the molecular weight of the protein and compound is the product of covalent modification. The percentage of covalent modification is obtained by calculating the ratio of […] to total protein.

Sequence of estrogen receptor ERα wild-type (P03372 296-554): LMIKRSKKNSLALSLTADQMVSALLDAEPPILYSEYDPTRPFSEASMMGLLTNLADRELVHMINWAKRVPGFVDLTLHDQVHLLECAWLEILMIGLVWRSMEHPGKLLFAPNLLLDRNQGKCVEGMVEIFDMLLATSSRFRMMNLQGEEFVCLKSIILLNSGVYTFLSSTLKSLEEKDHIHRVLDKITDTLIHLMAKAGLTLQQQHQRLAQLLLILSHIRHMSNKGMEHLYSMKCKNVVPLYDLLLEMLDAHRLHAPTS

In the case of `O=C(/C=C/CNC1(COc2ccc(/C(=C(/CC(F)(F)F)c3ccccc3)c3ccc4[nH]nc(F)c4c3)cn2)CC1)N1CCOCC1` [Example 1, (E)-1-Morpholino-4-((1-(((5-((Z)-4,4,4-trifluoro-1-(3-fluoro-1H-indazol-5-yl)-2-phenylbut-1-en-1-yl)pyridin-2-yl)oxy)methyl)cyclopropyl)amino)but-2-en-1-one], in series [1] (30 mg/kg), the Vd/F turned out to be 8.76 L/kg, the area under the curve (AUC) (usually concentration integrated over time) stood at 9850 ng·h/mL, the CL/F was 50.8 mL/min/kg and the half-life was 1.99 h. In addition, in series [1] (30 mg/kg), the Cmax is 4280 ng/mL and the MRT (as a rule, the average time that molecules of a dose stay in the body) was determined as 1.6 h. Besides, the “Covalent modification effect on the estrogen receptor ERα wild-type” value (shortened to “Covalent modification effect”) in series [2] is given as 97%.

With `CN(C)C(=O)/C=C/CN1CCC[C@@H](Oc2ccc(/C(=C(/CC(F)(F)F)c3ccccc3)c3ccc4[nH]nc(F)c4c3)cn2)C1` [Example 14, (E)-N,N-Dimethyl-4-((R)-3-((5-((Z)-4,4,4-trifluoro-1-(3-fluoro-1H-indazol-5-yl)-2-phenylbut-1-en-1-yl)pyridin-2-yl)oxy)piperidin-1-yl)but-2-enamide], in series [1] (2 mg/kg), the Vd/F worked out at 14.2 L/kg, the area under the curve (AUC) is 205 ng·h/mL, the CL/F worked out at 163 mL/min/kg and the half-life was 1.01 h. Further, in series [1] (2 mg/kg), the Cmax amounted to 87 ng/mL and the MRT was 1.9 h. Also, the bioavailability – broadly, dose-corrected exposure relative to a reference, in per cent – in series [1] (2 mg/kg, read-out: Bioavailability F) was determined as 24.8%. In addition, the “Covalent modification effect” value in series [2] was determined as 93%.

On to `O=C(/C=C/CN1CCC[C@@H](Oc2ccc(/C(=C(/CC(F)(F)F)c3ccccc3)c3ccc4[nH]nc(F)c4c3)cn2)C1)N1CCCC1` [Example 15, (E)-1-(Pyrrolidin-1-yl)-4-((R)-3-((5-((Z)-4,4,4-trifluoro-1-(3-fluoro-1H-indazol-5-yl)-2-phenylbut-1-en-1-yl)pyridin-2-yl)oxy)piperidin-1-yl)but-2-en-1-one], for which, in series [1] (30 mg/kg), the Vd/F amounted to 5.87 L/kg, the area under the curve (AUC) amounted to 6560 ng·h/mL, the CL/F stood at 76 mL/min/kg and the half-life is 0.89 h. In series [1] (30 mg/kg), the Cmax was 4570 ng/mL and the MRT was determined as 1.41 h. The “Covalent modification effect” value in series [2] worked out at 95%.

With `CN(C)C(=O)/C=C/CNC1(COc2ccc(/C(=C(/CC(F)(F)F)c3ccccc3)c3ccc4[nH]nc(F)c4c3)cn2)CC1` [Example 39, (E)-N,N-Dimethyl-4-((1-(((5-((Z)-4,4,4-trifluoro-1-(3-fluoro-1H-indazol-5-yl)-2-phenylbut-1-en-1-yl)pyridin-2-yl)oxy)methyl)cyclopropyl)amino)but-2-enamide], in series [1] (30 mg/kg), the Vd/F stood at 2.47 L/kg, the exposure (AUC) was found to be 16500 ng·h/mL, the CL/F was determined as 30.3 mL/min/kg and the half-life is 0.94 h. In series [1] (30 mg/kg), the Cmax stood at 6600 ng/mL and the MRT turned out to be 1.57 h. Also, the “Covalent modification effect” value in series [2] was determined as 97%.

As to `O=C(/C=C/CNC1(COc2ccc(/C(=C(/CC(F)(F)F)c3ccccc3)c3ccc4[nH]nc(F)c4c3)cn2)CC1)N1CC(O)C1` [Example 40, (E)-1-(3-Hydroxyazetidin-1-yl)-4-((1-(((5-((Z)-4,4,4-trifluoro-1-(3-fluoro-1H-indazol-5-yl)-2-phenylbut-1-en-1-yl)pyridin-2-yl)oxy)methyl)cyclopropyl)amino)but-2-en-1-one], in series [1] (30 mg/kg), the Vd/F came out at 4.59 L/kg, the AUC came out at 11900 ng·h/mL, the CL/F was determined as 42.1 mL/min/kg and the half-life is 1.26 h. Also, in series [1] (30 mg/kg), the Cmax was determined as 3560 ng/mL and the MRT stood at 2.3 h. The “Covalent modification effect” value in series [2] is recorded as 96%.

Turning to `O=C(/C=C/CNC1(COc2ccc(/C(=C(/CC(F)(F)F)c3ccccc3)c3ccc4[nH]nc(F)c4c3)cn2)CC1)N1CC[C@H](O)C1` [Example 41, (E)-1-((S)-3-Hydroxypyrrolidin-1-yl)-4-((1-(((5-((Z)-4,4,4-trifluoro-1-(3-fluoro-1H-indazol-5-yl)-2-phenylbut-1-en-1-yl)pyridin-2-yl)oxy)methyl)cyclopropyl)amino)but-2-en-1-one], in series [1] (30 mg/kg), the Vd/F was 14.4 L/kg, the AUC was 5020 ng·h/mL, the CL/F came to 99.6 mL/min/kg and the half-life is 1.67 h. For the same compound, in series [1] (30 mg/kg), the Cmax stood at 2890 ng/mL and the MRT was 2.26 h. Also, in series [2], the “Covalent modification effect” value came out at 93%.

Regarding `O=C(/C=C/CNC1(COc2ccc(/C(=C(/CC(F)(F)F)c3ccccc3)c3ccc4[nH]nc(F)c4c3)cn2)CC1)N1CCO[C@@H](CO)C1` [Example 42, (E)-1-((R)-2-(Hydroxymethyl)morpholino)-4-((1-(((5-((Z)-4,4,4-trifluoro-1-(3-fluoro-1H-indazol-5-yl)-2-phenylbut-1-en-1-yl)pyridin-2-yl)oxy)methyl)cyclopropyl)amino)but-2-en-1-one], in series [1] (30 mg/kg), the Vd/F is 11.5 L/kg, the AUC is 4510 ng·h/mL, the CL/F was 111 mL/min/kg and the half-life is 1.2 h. Moreover, in series [1] (30 mg/kg), the Cmax was found to be 2570 ng/mL and the mean residence time MRT is 1.56 h.
